Consider 2 compounds from patent US20250136649A1, “HONEY TRUFFLE SWEETENER (HTS) VARIANTS” (MYCOTECHNOLOGY, INC., priority 2023, published 2025).

The structures appear in SMILES notation.

In experiment [1] the test system is sweetness and flavor perception. The experiment in a line: Tasting of HTS sweetener blends in citric acid solution, lemon/lime soda, almond milk, chocolate spread. It counts as in vivo, human. Here is the method:
Sucrose is the standard for sweetness intensity perception in the food and beverage industry. […] With regard to the following Examples 18-38, sucrose equivalent (SE) values of non-sucrose sweeteners were calculated from Dubois et al. (1991) and cross referenced with other studies (Wee, M., Tan, V., & Forde, C. (2018). A Comparison of Psychophysical Dose-Response Behaviour across 16 Sweeteners. Nutrients, 10 (11), 1632).
DE Walters, FT Orthoefer, GE DuBois, pp. 261-276. Washington, DC: Am. Chem. Soc).
An HTS sweetness concentration response curve was developed. These values were used to determine approximate sucrose equivalents for the following blending examples (Examples 18-37).
HTS ((0.0 mg/mL, 0.007 mg/mL, 0.015 mg/mL and 0.035 mg/mL) and sucrose (8% w/w, 6% w/w, 4% w/w, and 2% w/w (respectively)) were added to a citric acid solution. The sweetener mixture was compared to a control with only sucrose added to the matrix. The sweetener mix was expected to be as sweet as or sweeter than the sucrose control for this matrix. Of total perceived sweetness intensity in each of the experimental samples in Table 11, 75% comes from sucrose and 25% comes from HTS, 50% comes from sucrose and 50% comes from HTS, 25% comes from sucrose and 75% comes from HTS, respectively.
HTS ((0.0 mg/mL, 0.008 mg/mL, 0.023 mg/mL and 0.064 mg/mL) and sucrose (10% w/w, 7.5% w/w, 5% w/w, and 2.5% w/w (respectively)) were added to a lemon/lime soda. The sweetener mixture was compared to a control with only sucrose added to the matrix. The sweetener mix was expected to be as sweet as or sweeter than the sucrose control for this matrix. Of total perceived sweetness intensity in each of the experimental samples in Table 12, 75% comes from sucrose and 25% comes from HTS, 50% comes from sucrose and 50% comes from HTS, 25% comes from sucrose and 75% comes from HTS, respectively.
HTS ((0.0 mg/mL, 0.005 mg/mL, 0.007 mg/mL and 0.010 mg/mL) and sucrose (4% w/w, 3.0% w/w, 2% w/w, and 1.0% w/w (respectively)) were added to an unsweetened almond milk. The sweetener mixture was compared to a control with only sucrose added to the matrix. The sweetener mix was expected to be as sweet as or sweeter than the control for this matrix. Of total perceived sweetness intensity in each of the experimental samples in Table 13, 75% comes from sucrose and 25% comes from HTS, 50% comes from sucrose and 50% comes from HTS, 25% comes from sucrose and 75% comes from HTS, respectively.
HTS ((0.0 mg/mL, 0.008 mg/mL, 0.023 mg/mL and 0.064 mg/mL) and sucrose (45% w/w, 33.8% w/w, 23% w/w, and 11.3% w/w (respectively)) were added to a chocolate spread. The sweetener mixture was compared to a control with only sucrose added to the matrix. The sweetener mix was expected to be as sweet as or sweeter than the control for this matrix. Of total perceived sweetness intensity in each of the experimental samples in Table 14, 75% comes from sucrose and 25% comes from HTS, 50% comes from sucrose and 50% comes from HTS, 25% comes from sucrose and 75% comes from HTS, respectively.
HTS ((0.0 mg/mL, 0.007 mg/mL, 0.015 mg/mL and 0.035 mg/mL) and erythritol (11.43% w/w, 8.57% w/w, 5.71% w/w, and 2.86% w/w (respectively)) were added to a citric acid solution. The sweetener mixture was compared to a control with only erythritol added to the matrix. The sweetener mix was expected to be as sweet as or sweeter than the control for this matrix. Of total perceived sweetness intensity in each of the experimental samples in Table 15, 75% comes from erythritol and 25% comes from HTS, 50% comes from erythritol and 50% comes from HTS, 25% comes from erythritol and 75% comes from HTS, respectively.

The subject of another experiment is perception of the flavor. Put plainly: Tasting of HTS flavor modifying compositions in a mock beverage matrix. It counts as in vivo, human. The conditions noted are these: pH about 3, 0.25% w/w lemon/lime flavor, HTS 0.004 mg/mL. How it is done:
HTS (0.004 mg/mL) and sucrose (10% w/w concentration) were added to a mock beverage matrix (citric acid, a flavor and carbonation). […] HTS and sucrose were added to hit a target of 10% w/w sucrose equivalent sweetness. The HTS/sucrose mixture was compared to an unsweetened control, an unsweetened control+0.004 mg/mL HTS, and a sucrose sweetened control (10% w/w concentration of sucrose).
HTS (0.004 mg/mL) and erythritol (13.3% w/w concentration) were added to a mock beverage matrix (citric acid, a flavor, and carbonation). […] HTS and erythritol were added to hit a target of 10% w/w sucrose equivalent sweetness. The HTS/erythritol mixture was compared to an unsweetened control, an unsweetened control+0.004 mg/mL HTS, and an erythritol sweetened control (13.3% w/w concentration).
HTS (0.004 mg/mL) and sucralose (0.0387% w/w concentration) were added to a mock beverage matrix (citric acid, a flavor, and carbonation). […] HTS and sucralose were added to hit a target of 10% w/w sucrose equivalent sweetness. The HTS/sucralose mixture was compared to an unsweetened control, an unsweetened control+0.004 mg/mL HTS, and a sucralose sweetened control (0.0387% w/w concentration).
HTS (0.004 mg/mL) and stevia (0.0395% w/w concentration) were added to a mock beverage matrix (citric acid, a flavor, and carbonation). […] HTS and stevia were added to hit a target of 10% w/w sucrose equivalent sweetness. […]

A further experiment concerns sweet taste. As to conditions: linear potency curve similar to sucrose (DuBois 1991); cited from earlier work.

For the compound `OC[C@@H](O)[C@@H](O)CO` [Erythritol, erythritol], the Observations result in experiment [1] (chocolate spread, erythritol w/w / HTS mg/mL: control 45%/0.0, 75/25 33.8%/0.008, 50/50 23%/0.023, 25/75 11.3%/0.064) was “Brief initial sweetness, mouth cooling, cocoa”; in experiment [1] (citric acid solution, erythritol w/w / HTS mg/mL: control 11.43%/0, 75/25 8.57%/0.007, 50/50 5.71%/0.015, 25/75 2.86%/0.035), “Reduced sour intensity compared to sucrose”; in experiment [1] (lemon/lime soda, erythritol w/w / HTS mg/mL: control 13.30%/0.0, 75/25 9.31%/0.008, 50/50 6.90%/0.023, 25/75 3.10%/0.064) it was “Reduced citrus flavor intensity. Strong mouth”; with perception of the flavor (erythritol 13.30% w/w), “More sour, bitter, mineral, mouth drying,”. In addition, in the experiment with sweet taste, the “potency curve multiplier relative to sucrose” value is on record as 0.7 ×.
As for `OC[C@H]1O[C@H](O[C@]2(CCl)O[C@H](CCl)[C@@H](O)[C@@H]2O)[C@H](O)[C@@H](O)[C@H]1Cl` [Sucralose, sucralose], the Observations entry was “Pleasantly sweetened almond milk. Little” in experiment [1] (almond milk, sucralose w/w / HTS mg/mL: control 0.0053%/0.0, 75/25 0.0037%/0.005, 50/50 0.0023%/0.007, 25/75 0.0011%/0.010); “Reduced cocoa flavor intensity compared to sucrose” in experiment [1] (chocolate spread, sucralose w/w / HTS mg/mL: control 0.0387%/0.0, 75/25 0.0247%/0.008, 50/50 0.0096%/0.023, 25/75 0.0030%/0.064); “Intense initial sweetness that overpowers acidity” in experiment [1] (citric acid solution, sucralose w/w / HTS mg/mL: control 0.0170%/0.0, 75/25 0.0100%/0.007, 50/50 0.0053%/0.015, 25/75 0.0023%/0.035); “Intense initial sourness. Strong sweet aftertaste” in experiment [1] (lemon/lime soda, sucralose w/w / HTS mg/mL: control 0.0387%/0.0, 75/25 0.0247%/0.008, 50/50 0.0096%/0.023, 25/75 0.0030%/0.064); “Sweet linger, little flavor carry over” with perception of the flavor (sucralose 0.0387% w/w).
